In one assay the target is T1, CDK2/CycE (Homo sapiens, UniProt P24941).
T1 construct: GST; purchased ProQinase GmbH (Freiburg, Germany); host or cells: insect cells (Sf9)
Nature of the assay: CDK2/CycE high ATP kinase assay (TR-FRET, 2 mM ATP). The class given is biochemical. To be noted: Method 2b. The procedure:
2b. CDK2/CycE High ATP Kinase Assay:
CDK2/CycE-inhibitory activity of compounds of the present invention at 2 mM adenosine-tri-phosphate (ATP) was quantified employing the CDK2/CycE TR-FRET (TR-FRET=Time Resolved Fluorescence Energy Transfer) assay as described in the following paragraphs.
Recombinant fusion proteins of GST and human CDK2 and of GST and human CycE, expressed in insect cells (Sf9) and purified by Glutathion-Sepharose affinity chromatography, were purchase from ProQinase GmbH (Freiburg, Germany). As substrate for the kinase reaction biotinylated peptide biotin-Ttds-[…] (C-terminus in amid form) was used which can be purchased e.g. form the company JERINI peptide technologies (Berlin, Germany).
For the assay 50 nl of a 100 fold concentrated solution of the test compound in DMSO was pipetted into a black low volume 384 well microtiter plate (Greiner Bio-One, Frickenhausen, Germany), 2 μl of a solution of CDK2/CycE in aqueous assay buffer [50 mM Tris/HCl pH 8.0, 10 mM MgCl2, 1.0 mM dithiothreitol, 0.1 mM sodium ortho-vanadate, 0.01% (v/v) Nonidet-P40 (Sigma)] were added and the mixture was incubated for 15 min at 22° C. to allow pre-binding of the test compounds to the enzyme before the start of the kinase reaction. Then the kinase reaction was started by the addition of 3 μl of a solution ATP (3.33 mM=>final conc. in the 5 μl assay volume is 2 mM) and substrate (1.25 μM=>final conc. in the 5 μl assay volume is 0.75 μM) in assay buffer and the resulting mixture was incubated for a reaction time of 25 min at 22° C. The concentration of CDK2/CycE was adjusted depending of the activity of the enzyme lot and was chosen appropriate to have the assay in the linear range, typical concentrations were in the range of 15 ng/ml. The reaction was stopped by the addition of 5 μl of a solution of TR-FRET detection reagents (0.2 μM streptavidine-XL665 [Cisbio Bioassays, Codolet, France] and 1 nM anti-RB(pSer807/pSer811)-antibody from BD Pharmingen [#558389] and 1.2 nM LANCE EU-W1024 labeled anti-mouse IgG antibody [Perkin-Elmer, product no. AD0077, as an alternative a Terbium-cryptate-labeled anti-mouse IgG antibody from Cisbio Bioassays can be used]) in an aqueous EDTA-solution (100 mM EDTA, 0.2% (w/v) bovine serum albumin in 100 mM HEPES/NaOH pH 7.0).
The resulting mixture was incubated 1 h at 22° C. to allow the formation of complex between the phosphorylated biotinylated peptide and the detection reagents. Subsequently the amount of phosphorylated substrate was evaluated by measurement of the resonance energy transfer from the Eu-chelate to the streptavidine-XL. Therefore, the fluorescence emissions at 620 nm and 665 nm after excitation at 350 nm were measured in a TR-FRET reader, e.g. a Rubystar (BMG Labtechnologies, Offenburg, Germany) or a Viewlux (Perkin-Elmer). The ratio of the emissions at 665 nm and at 622 nm was taken as the measure for the amount of phosphorylated substrate.
In general terms: TR-FRET usually uses a lanthanide donor and a delayed reading to cut background.

For another assay, the target named is T2, CDK9/CycT1 (Homo sapiens, UniProt P50750).
T2 construct: Recombinant full-length His-tagged human CDK9 and CycT1; His; purchased Invitrogen PV4131; host or cells: insect cells
Kind of assay: CDK9/CycT1 kinase assay (TR-FRET, 10 μM ATP). The format is biochemical. To be noted: Method 1a. From the text:
1a. CDK9/CyeT1 Kinase Assay:
CDK9/CycT1-inhibitory activity of compounds of the present invention was quantified employing the CDK9/CycT1 TR-FRET assay as described in the following paragraphs:
Recombinant full-length His-tagged human CDK9 and CycT1, expressed in insect cells and purified by Ni-NTA affinity chromatography, were purchased from Invitrogen (Cat. No PV4131). As substrate for the kinase reaction biotinylated peptide biotin-Ttds-[…] (C-terminus in amid form) was used which can be purchased e.g. form the company JERINI Peptide Technologies (Berlin, Germany). For the assay 50 nl of a 100 fold concentrated solution of the test compound in DMSO was pipetted into a black low volume 384 well microtiter plate (Greiner Bio-One, Frickenhausen, Germany), 2 μl of a solution of CDK9/CycT1 in aqueous assay buffer [50 mM Tris/HCl pH 8.0, 10 mM MgCl2, 1.0 mM dithiothreitol, 0.1 mM sodium ortho-vanadate, 0.01% (v/v) Nonidet-P40 (Sigma)] were added and the mixture was incubated for 15 min at 22° C. to allow pre-binding of the test compounds to the enzyme before the start of the kinase reaction.
The resulting mixture was incubated 1 h at 22° C. to allow the formation of complex between the phosphorylated biotinylated peptide and the detection reagents. Subsequently the amount of phosphorylated substrate was evaluated by measurement of the resonance energy transfer from the Eu-chelate to the streptavidine-XL.

Counter-ions that a name gives are not always drawn.

As a reminder, the IC50 is the midpoint of a concentration-inhibition curve. High values mean weaker potency in that assay, low ones greater potency in that assay.

T2 sequence (P50750 whole entry): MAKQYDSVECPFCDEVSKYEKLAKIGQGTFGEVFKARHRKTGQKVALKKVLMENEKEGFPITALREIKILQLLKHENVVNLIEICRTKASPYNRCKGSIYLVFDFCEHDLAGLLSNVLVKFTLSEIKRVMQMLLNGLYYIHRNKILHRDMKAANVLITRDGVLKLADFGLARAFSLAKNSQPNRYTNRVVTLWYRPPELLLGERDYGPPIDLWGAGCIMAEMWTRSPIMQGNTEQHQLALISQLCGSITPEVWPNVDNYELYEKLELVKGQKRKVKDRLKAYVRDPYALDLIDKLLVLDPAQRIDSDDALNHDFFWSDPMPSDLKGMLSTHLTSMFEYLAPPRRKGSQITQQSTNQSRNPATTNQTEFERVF
T2 sequence (O60563 whole entry partner): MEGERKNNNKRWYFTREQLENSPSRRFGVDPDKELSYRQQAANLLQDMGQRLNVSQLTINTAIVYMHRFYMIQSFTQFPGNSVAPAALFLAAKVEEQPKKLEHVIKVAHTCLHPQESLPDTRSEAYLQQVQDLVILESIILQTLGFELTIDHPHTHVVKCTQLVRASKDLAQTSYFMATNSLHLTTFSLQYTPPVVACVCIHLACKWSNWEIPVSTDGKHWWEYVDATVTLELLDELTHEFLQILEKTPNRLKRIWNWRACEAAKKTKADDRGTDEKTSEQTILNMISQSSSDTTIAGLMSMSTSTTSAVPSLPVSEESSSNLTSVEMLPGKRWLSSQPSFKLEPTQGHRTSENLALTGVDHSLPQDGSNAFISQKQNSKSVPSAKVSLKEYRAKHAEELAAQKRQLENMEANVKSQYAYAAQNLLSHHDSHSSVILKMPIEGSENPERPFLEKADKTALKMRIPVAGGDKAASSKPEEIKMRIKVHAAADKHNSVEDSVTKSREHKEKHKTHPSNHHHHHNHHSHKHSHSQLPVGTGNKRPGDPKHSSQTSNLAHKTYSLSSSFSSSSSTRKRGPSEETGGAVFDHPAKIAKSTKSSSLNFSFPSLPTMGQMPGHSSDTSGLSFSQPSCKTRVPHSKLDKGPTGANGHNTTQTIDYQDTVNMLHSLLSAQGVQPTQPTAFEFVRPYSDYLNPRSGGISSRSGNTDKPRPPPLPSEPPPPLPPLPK

For the compound `COc1cc(F)ccc1-c1cc(Nc2cc(CS(C)(=N)=O)ccn2)ncc1F` (racemic) [Example 1, (rac)-5-Fluoro-4-(4-fluoro-2-methoxyphenyl)-N-{4-[(S-methylsulfonimidoyl)methyl]pyridin-2-yl}pyridin-2-amine], half-maximal inhibition against CDK2/CycE (IC50) was put at 5860 nM.
For the compound `COc1cc(F)ccc1-c1cc(Nc2cc(CS(C)(=N)=O)cc(C)n2)ncc1F` (racemic) [Example 4, (rac)-5-Fluoro-4-(4-fluoro-2-methoxyphenyl)-N-{6-methyl-4-[(S-methylsulfonimidoyl)methyl]pyridin-2-yl}pyridin-2-amine], the figures for the 50% inhibitory concentration (IC50) on CDK2/CycE and on CDK9/CycT1 were 1010 nM and 4 nM, respectively.
The matching figures for `COc1cc(F)ccc1-c1cc(Nc2cc(CS(C)(=N)=O)c(Br)c(C)n2)ncc1F` (racemic) [Example 5, (rac)-5-Bromo-N-[5-fluoro-4-(4-fluoro-2-methoxyphenyl)pyridin-2-yl]-6-methyl-4-[(S-methylsulfonimidoyl)methyl]pyridin-2-amine]: 1770 nM and 5 nM.
On to `COc1cc(CS(C)(=N)=O)cc(Nc2cc(-c3ccc(F)cc3OC)c(F)cn2)n1` (racemic) [Example 6, (rac)-5-Fluoro-4-(4-fluoro-2-methoxyphenyl)-N-{6-methoxy-4-[(S-methylsulfonimidoyl)methyl]pyridin-2-yl}pyridin-2-amine], for which the IC50 stood at 84 nM at CDK2/CycE and 2 nM on CDK9/CycT1.
Take `COc1cc(F)ccc1-c1cc(Nc2cc(CS(C)(=N)=O)cc(Cl)n2)ncc1F` (racemic) [Example 7, (rac)-N-{6-Chloro-4-[(S-methylsulfonimidoyl)methyl]pyridin-2-yl}-5-fluoro-4-(4-fluoro-2-methoxyphenyl)pyridin-2-amine]: the values for the IC50 against CDK2/CycE and on CDK9/CycT1 were 630 nM and 2 nM, respectively.
In the case of `COc1cc(F)ccc1-c1cc(Nc2cc(CS(=N)(=O)CCO)ccn2)ncc1F` (racemic) [Example 8, (rac)-2-{S-[(2-{[5-Fluoro-4-(4-fluoro-2-methoxyphenyl)pyridin-2-yl]amino}pyridin-4-yl)methyl]sulfonimidoyl}ethanol], the results for the concentration for half-maximal inhibition (IC50) against CDK2/CycE and against CDK9/CycT1 were 4190 nM and 13 nM, respectively.
For the compound `COc1cc(F)ccc1-c1cc(Nc2cc(CS(=N)(=O)CCN)ccn2)ncc1F` (racemic) [Example 9, (rac)-N-(4-{[S-(2-Aminoethyl)sulfonimidoyl]methyl}pyridin-2-yl)-5-fluoro-4-(4-fluoro-2-methoxyphenyl)pyridin-2-amine], the 50% inhibitory concentration (IC50) at CDK2/CycE came to 4230 nM; against CDK9/CycT1, 8 nM.
As for `CCOC(=O)N=S(C)(=O)Cc1ccnc(Nc2cc(-c3ccc(F)cc3OC)c(F)cn2)c1` (racemic) [Example 11, (rac)-Ethyl{[(2-{[5-fluoro-4-(4-fluoro-2-methoxyphenyl)pyridin-2-yl]amino}pyridin-4-yl)methyl](methyl)oxido-λ^6-sulfanylidene}carbamate], the concentration for half-maximal inhibition (IC50) is 2920 nM at CDK2/CycE and 1 nM against CDK9/CycT1.
The matching figures for `CCNC(=O)N=S(C)(=O)Cc1ccnc(Nc2cc(-c3ccc(F)cc3OC)c(F)cn2)c1` (racemic) [Example 12, (rac)-1-Ethyl-3-{[(2-{[5-fluoro-4-(4-fluoro-2-methoxyphenyl)pyridin-2-yl]amino}pyridin-4-yl)methyl](methyl)oxido-λ^6-sulfanylidene}urea]: 3070 nM and 2 nM.
The matching figures for `COc1cc(F)ccc1-c1cc(Nc2cc(CS(C)(=O)=NC(C)=O)ccn2)ncc1F` (racemic) [Example 13, (rac)-N-{[(2-{[5-Fluoro-4-(4-fluoro-2-methoxyphenyl)pyridin-2-yl]amino}pyridin-4-yl)methyl](methyl)oxido-λ^6-sulfanylidene}acetamide]: 3690 nM and 1 nM.
In the case of `COc1cc(F)ccc1-c1cc(Nc2cc(CS(C)(=O)=NC(=O)C(F)(F)F)cc(F)n2)ncc1F` (racemic) [Example 18, (rac)-2,2,2-Trifluoro-N-{[(2-fluoro-6-{[5-fluoro-4-(4-fluoro-2-methoxyphenyl)pyridin-2-yl]amino}pyridin-4-yl)methyl](methyl)oxido-λ^6-sulfanylidene}acetamide], the IC50 on CDK9/CycT1 stood at 3 nM.
The compound `COc1cc(F)ccc1-c1cc(Nc2cc(CS(C)(=N)=O)ccn2)ncc1F` (single isomer, unassigned; (+)) [Example 2, (+)-5-Fluoro-4-(4-fluoro-2-methoxyphenyl)-N-{4-[(S-methylsulfonimidoyl)methyl]pyridin-2-yl}pyridin-2-amine] yielded a half-maximal inhibitory concentration (IC50) against CDK2/CycE of 2920 nM. This lies in the single-digit micromolar range.
Same read-out and setting: the value for `COc1cc(F)ccc1-c1cc(Nc2cc(CS(C)(=N)=O)cc(C)n2)ncc1F` (single isomer, unassigned; (+)) [Example 32, (+)-5-Fluoro-4-(4-fluoro-2-methoxyphenyl)-N-{6-methyl-4-[(S-methylsulfonimidoyl)methyl]pyridin-2-yl}pyridin-2-amine] was 1120 nM; that for `COc1cc(F)ccc1-c1cc(Nc2cc(CS(C)(=N)=O)ccn2)ncc1F` (single isomer, unassigned; (-)) [Example 3, (−)-5-Fluoro-4-(4-fluoro-2-methoxyphenyl)-N-{4-[(S-methylsulfonimidoyl)methyl]pyridin-2-yl}pyridin-2-amine] was 2490 nM; that for `COc1cc(F)ccc1-c1cc(Nc2cc(CS(C)(=N)=O)cc(C(F)(F)F)n2)ncc1F` (single isomer, unassigned; (-)) [Example 23, (−)-5-Fluoro-4-(4-fluoro-2-methoxyphenyl)-N-{4-[(S-methylsulfonimidoyl)methyl]-6-(trifluoromethyl)pyridin-2-yl}pyridin-2-amine] was 283 nM.
The same measure, in the same setting: the value for `COc1cc(F)ccc1-c1cc(Nc2cc(CS(C)(=N)=O)cc(C)n2)ncc1F` (single isomer, unassigned; (-)) [Example 33, (−)-5-Fluoro-4-(4-fluoro-2-methoxyphenyl)-N-{6-methyl-4-[(S-methylsulfonimidoyl)methyl]pyridin-2-yl}pyridin-2-amine] was 680 nM; that for `COc1cc(F)ccc1-c1cc(Nc2cc(CS(C)(=N)=O)ccn2)ncc1F` (single isomer, unassigned; enantiomer 1) [Example 16, 5-Fluoro-4-(4-fluoro-2-methoxyphenyl)-N-{4-[(S-methylsulfonimidoyl)methyl]pyridin-2-yl}pyridin-2-amine hydrochloride; enantiomer 1] was 5150 nM; that for `COc1cc(F)ccc1-c1cc(Nc2cc(CS(C)(=N)=O)ccn2)ncc1F.Cl` (single isomer, unassigned; enantiomer 2) [Example 14, 5-Fluoro-4-(4-fluoro-2-methoxyphenyl)-N-{4-[(S-methylsulfonimidoyl)methyl]pyridin-2-yl}pyridin-2-amine hydrochloride; enantiomer 2] was 3410 nM.

The values are drawn from patent US9650340B2, “5-fluoro-N-(pyridin-2-yl)pyridin-2-amine derivatives containing a sulfoximine group” (BAYER PHARMA AKTIENGESELLSCHAFT, priority 2012, dated 2017).
